Measurements reported in patent US12398111B2, “Triazine compounds and pharmaceutical use thereof” (Japan Tobacco Inc., priority 2014, dated 2025).

target: T1, human mPGES-1 (Homo sapiens, UniProt O14684); test: Evaluation of human mPGES-1 enzyme inhibitory activity (PGE2 measured by HTRF, microsome fraction of CHO-S cells expressing human mPGES-1); format: biochemical; details: IC50 value; microsome fraction of CHO-S cells expressing human mPGES-1, PGE2 by HTRF
T1 construct: made in house; host or cells: FreeStyle CHO-S cells (Chinese hamster ovary), transient transfection with pcDNA3.1(+)/human mPGES-1; microsome fraction used
T1 sequence (O14684 1-152): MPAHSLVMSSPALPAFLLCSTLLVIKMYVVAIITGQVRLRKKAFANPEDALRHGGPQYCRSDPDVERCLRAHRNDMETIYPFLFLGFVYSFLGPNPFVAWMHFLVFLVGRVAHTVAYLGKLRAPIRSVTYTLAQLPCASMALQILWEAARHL
Experimental: That is, the amount of PGE2 produced by human mPGES-1 in the presence of a test article was measured by the HTRF (homogeneous time resolved fluorescence) method, based on which the human mPGES-1 enzyme inhibitory activity of the test article was determined.
1) Preparation of Human mPGES-1 Expressing Cell Microsome Fraction
A DNA fragment containing human mPGES-1, which is added with a BamHI recognition cleavage sequence immediately before the translation initiation codon and an EcoRI recognition cleavage sequence immediately after the translation termination codon was amplified by the PCR (Polymerase Chain Reaction) method using a human mPGES-1 expression plasmid DNA (pME-18S/iPGES-1) prepared in-house as a template. The purified DNA fragment was digested with BamHI and EcoRI, and ligated to pcDNA3.1(+) (Invitrogen, model number V790-20), similarly digested with BamHI and EcoRI, by using a DNA Ligation kit ver.2.1 (Takara Bio, model number 6022). The human mPGES-1 expression plasmid DNA was isolated from Escherichia coli DH5a (TOYOBO, model number DNA-903) transformed with the obtained ligation product. The base sequence of human mPGES-1 cloned to a vector was determined by the Dye Terminator method by using BigDye Terminator v3.1 Cycle Sequencing Kit (Applied Biosystems, #4337455).
Human mPGES-1 expression plasmid DNA was transfected into Chinese hamster ovary-derived cells (FreeStyle CHO-S Cell, Invitrogen, #R800-07) by using a transgene reagent (FreeStyle MAX Reagent (Invitrogen, #16447-100)), and cultured with shaking (8% CO2, 37° C.) in a medium containing 8 mmol/L L-glutamine (GIBCO FreeStyle CHO Expression Medium, Invitrogen, #12651-022) for 48 hr.
The CHO-S cells were suspended in Homogenate Buffer (100 mmol/L potassium phosphate (pH 7.4), 250 mmol/L Sucrose, 100 mmol/L EDTA, complete EDTA free (Roche, #1873580)). Using an ultrasonic disruptor UD-201 (Tomy Seiko), the suspended cells were disrupted at output:3, duty cycle:50 for 30 seconds. The precipitate was removed by centrifugation (1,000×g, 5 min, 4° C.), is and the supernatant was centrifuged (5,000×g, 10 min, 4° C.). The supernatant was further centrifuged (105,000×g, 60 min, 4° C.). The obtained precipitate was suspended in Resuspension Buffer (100 mmol/L potassium phosphate (pH 7.4), 250 mmol/L sucrose, 100 mmol/L EDTA, 10% glycerol) to give a microsome fraction.
The protein concentration of the microsome fraction was measured by the Bradford method (Protein Assay Kit, Bio-Rad). The microsome fraction was rapidly frozen in liquid nitrogen and preserved at −80° C. Human mPGES-1 in the microsome fraction was detected by Western Blot using rabbit anti-mPGES-1 polyclonal antibody (ThermoFisher Scientific, #PA1-10264).
2) Evaluation of Human mPGES-1 Enzyme Inhibitory Activity
A test article solution diluted with 0.1 mol/L potassium phosphate, pH 7.4 (hereinafter to be referred to as KPB) or DMSO (Nacalai Tesque, #13407-45) was added at 5 μL/well to 96 well V-bottom plate (Corning, #3363). The final DMSO concentration during the reaction was set to 2% (v/v). Furthermore, a microsome fraction of CHO-S cells expressing human mPGES-1, which was diluted with reduced GSH (12.5 mmol/L KPB solution, SIGMA, #G6529-25G) such that the protein concentration was 5 μg/mL, was added at 20 μL/well. The amount of the microsome fraction used is the amount of microsome fraction within a range where the amount of PGE2 produced under the reaction conditions shown below and the amount of microsome fraction used show linearity. To the blank was added reduced GSH (12.5 mmol/L KPB solution) at 20 μL/well.

Structure (SMILES) | IC50
CCN(Cc1ccc(Cl)c(-c2nc(O)nc(-c3ccc(OCC(C)(C)C)cc3)n2)c1)C(=O)C(C)(C)C(F)(F)F [Example 1-235] | 70 nM
CC(C)(C)C(=O)NCc1ccc(Cl)c(-c2nc(O)nc(-c3cccc(C(F)(F)F)c3)n2)c1 [Example 1-54] | 0.9 nM
O=C(NCc1ccc(Cl)c(-c2nc(O)nc(-c3ccccc3)n2)c1)C1CCCCC1 [Example 1-71] | 2.5 nM
Cc1cc(-c2nc(O)nc(-c3cc(CNC(=O)C(C)(C)C(F)(F)F)ccc3Cl)n2)ccc1OCC1CC1 [Example 1-175] | 1.3 nM
CC(C)(C)C(=O)NCc1ccc(Cl)c(-c2nc(O)nc(-c3ccc(OC(F)(F)F)cc3)n2)c1 [Example 1-60] | 0.4 nM
CCCCc1ccc(-c2nc(O)nc(-c3cc(CNC(=O)[C@@](C)(OC)C(F)(F)F)ccc3Cl)n2)cc1 [Example 1-181] | 2.4 nM
CN(Cc1ccc(Cl)c(-c2nc(O)nc(-c3ccccc3)n2)c1)C(=O)C1CCCCC1 [Example 1-229] | 532 nM
CCCC(C)(C)C(=O)N(C)Cc1ccc(Cl)c(-c2nc(O)nc(-c3ccccc3)n2)c1 [Example 1-245] | 108 nM
CC(C)(C)COc1ccc(-c2nc(O)nc(-c3cc(CO)ccc3Cl)n2)cc1 [Example 1-187] | 5.3 nM
CC(=O)NCc1ccc(C)c(-c2nc(O)nc(-c3ccc(C(F)(F)F)cc3)n2)c1 [Example 1-47] | 43 nM
O=C(NCc1ccc(Cl)c(-c2nc(O)nc(-c3ccc(F)c(C4CC4)c3)n2)c1)C1(C(F)(F)F)CC1 [Example 1-157] | 0.7 nM
CO[C@@](C)(C(=O)NCc1ccc(Cl)c(-c2nc(O)nc(-c3ccccc3)n2)c1)C(F)(F)F [Example 1-89] | 0.9 nM
CC(C)(C)NC(=O)Cc1ccc(Cl)c(-c2nc(O)nc(-c3ccc(C(F)(F)F)cc3)n2)c1 [Example 1-41] | 2.3 nM
COC(C)(C)C(=O)NCc1ccc(Cl)c(-c2nc(O)nc(-c3ccc(C(F)(F)F)cc3)n2)c1 [Example 1-56] | 0.6 nM
CC(C)(C)c1cccc(-c2nc(O)nc(-c3cc(CNC(=O)C(C)(C)C(F)(F)F)ccc3Cl)n2)c1 [Example 1-92] | 0.5 nM
CN(Cc1ccc(Cl)c(-c2nc(O)nc(-c3ccc(OCC(C)(C)C)cc3)n2)c1)C(=O)C(C)(C)C(F)(F)F [Example 1-196] | 42 nM

Structure (SMILES) | IC50
COCCc1ccc(Cl)c(-c2nc(O)nc(-c3ccc(OCC(C)(C)C)cc3)n2)c1 [Example 1-199] | 31 nM
CNC(=O)NCc1ccc(Cl)c(-c2nc(O)nc(-c3ccc(C(F)(F)F)cc3)n2)c1 [Example 1-35] | 22 nM
CCCCc1ccc(-c2nc(O)nc(-c3cc(CNC(=O)C(C)(C)C(F)(F)F)ccc3Cl)n2)cc1 [Example 1-180] | 4.1 nM
CN(Cc1ccc(Cl)c(-c2nc(O)nc(-c3ccccc3)n2)c1)C(=O)C(C)(C)Cc1ccccc1 [Example 1-249] | 226 nM
Cc1ccc(Cl)c(-c2nc(O)nc(-c3ccc(C(F)(F)F)cc3)n2)c1 [Example 1-4] | 25 nM
CC(=O)c1ccc(Cl)c(-c2nc(O)nc(-c3ccc(C(F)(F)F)cc3)n2)c1 [Example 1-13] | 397 nM
O=C(O)c1ccc(Cl)c(-c2nc(O)nc(-c3ccc(C(F)(F)F)cc3)n2)c1 [Example 1-8] | 27000 nM
CC(C)Oc1cccc(-c2nc(O)nc(-c3cc(CNC(=O)C(C)(C)C(F)(F)F)ccc3Cl)n2)c1 [Example 1-91] | 0.4 nM
CC(C)(C(=O)NCc1ccc(Cl)c(-c2nc(O)nc(-c3ccccc3)n2)c1)C(F)(F)F [Example 1-69] | 0.3 nM
CC(C)(C(=O)NCc1ccc(Cl)c(-c2nc(O)nc(-c3ccc(OCC(F)(F)F)cc3)n2)c1)C(F)(F)F [Example 1-113] | 0.9 nM
COCC(C)(C)C(=O)N(C)Cc1ccc(Cl)c(-c2nc(O)nc(-c3ccccc3)n2)c1 [Example 1-239] | 428 nM
CN(Cc1ccc(Cl)c(-c2nc(O)nc(-c3ccc(OCC4CCCCC4)cc3)n2)c1)C(=O)C(C)(C)C(F)(F)F [Example 1-211] | 63 nM
Cc1cc(-c2nc(O)nc(-c3cc(CNC(=O)C4(C(F)(F)F)CCC4)ccc3Cl)n2)ccc1F [Example 1-125] | 0.8 nM
O=C(NCc1ccc(Cl)c(-c2nc(O)nc(-c3cccc(C4CC4)c3)n2)c1)C1(C(F)(F)F)CC1 [Example 1-160] | 1.4 nM
O=C(NCc1ccc(Cl)c(-c2nc(O)nc(-c3ccccc3)n2)c1)C1(C(F)(F)F)CCCC1 [Example 1-68] | 0.3 nM
CCC(CC)(CO)C(=O)NCc1ccc(Cl)c(-c2nc(O)nc(-c3ccccc3)n2)c1 [Example 1-250] | 12 nM

Second part, the compound after the results:

IC50 | Structure (SMILES)
90 nM | Cc1cccc(C)c1-c1nc(O)nc(-c2ccc(OCC3CCC3)cc2)n1 [Example 2-51]
402 nM | CCC(CC)Oc1ccc(-c2nc(O)nc(-c3c(C)cccc3C)n2)cc1 [Example 2-73]
503 nM | Cc1cccc(C)c1-c1nc(O)nc(-c2cccc(OCc3ccccc3)c2)n1 [Example 2-29]
8 nM | Cc1cccc(C)c1-c1nc(O)nc(-c2ccc(C#CC3CCCCC3)cc2)n1 [Example 2-18]
1.6 nM | Oc1nc(-c2ccc(C#CC3CCCC3)cc2)nc(-c2c(Cl)cccc2OCc2ccccn2)n1 [Example 2-91]
7.1 nM | COc1cccc(COc2cccc(C(F)(F)F)c2-c2nc(O)nc(-c3ccc(C#Cc4ccccc4)cc3)n2)n1 [Example 2-118]
41 nM | Cc1cccc(C)c1-c1nc(O)nc(-c2ccc(OCC3CCCCC3)cc2)n1 [Example 2-37]
1.8 nM | Cc1cccc(COc2cccc(Cl)c2-c2nc(O)nc(-c3ccc(C#Cc4ccccc4)cc3)n2)n1 [Example 2-87]
121 nM | Oc1nc(-c2ccc(C(F)(F)F)cc2)nc(-c2c(Cl)cccc2OCc2cccnc2)n1 [Example 2-60]
341 nM | CC(C)Oc1cccc(Cl)c1-c1nc(O)nc(-c2ccc(C(F)(F)F)cc2)n1 [Example 2-21]
18 nM | Cc1ccc(COc2cccc(Cl)c2-c2nc(O)nc(-c3ccc(C(F)(F)F)cc3)n2)cc1 [Example 2-56]
163 nM | COCCOc1cccc(Cl)c1-c1nc(O)nc(-c2ccc(C(F)(F)F)cc2)n1 [Example 2-34]
2 nM | N#Cc1cccc(OCc2ccccn2)c1-c1nc(O)nc(-c2ccc(C#Cc3ccccc3)cc2)n1 [Example 2-88]
5.1 nM | CCOC(=O)NCc1ccc(Cl)c(-c2nc(O)nc(-c3ccc(CC(C)C)cc3)n2)c1C [Example 3-15]
141 nM | Cc1cccc(C)c1-c1nc(O)nc(-c2ccc(CCc3ccccc3)cc2)n1 [Example 2-12]
2100 nM | CN(C)C(=O)COc1cccc(Cl)c1-c1nc(O)nc(-c2ccc(OCC3CC3)cc2)n1 [Example 2-90]
3.7 nM | Oc1nc(-c2ccc(OCC3CCCCC3)cc2)nc(-c2c(Cl)cccc2OCc2ccccn2)n1 [Example 2-77]
6.4 nM | Cc1cccc(COc2cccc(C(F)(F)F)c2-c2nc(O)nc(-c3ccc(C#Cc4ccccc4Cl)cc3)n2)n1 [Example 2-108]
4.1 nM | COc1ccnc(COc2cccc(C(F)(F)F)c2-c2nc(O)nc(-c3ccc(C#Cc4ccccc4)cc3)n2)c1 [Example 2-120]
56 nM | Cc1c(CO)ccc(Cl)c1-c1nc(O)nc(-c2ccc(C(F)(F)F)cc2)n1 [Example 3-6]

same assay, conditions: at 30 μM test article

inhibition at 30 µM | Structure (SMILES)
42% | Cc1ccc(C(N)=O)cc1-c1nc(O)nc(-c2ccc(C(F)(F)F)cc2)n1 [Example 1-11]
